Laboratory results published in patent US8222202B2 (priority 2006, dated 2012).
Like-named read-outs stand apart in the source and are kept apart here. Starred links: 1 amine or outer side, 2 acyl side, 3 side chain; linkers in the order of their positions; H or OH if unused. Positions of bridges follow the written chain, without caps; N, C: chain ends. Non-standard residues stand in square brackets, D forms with d. Residues, ends and D or L forms follow the SMILES beside them. *: point of attachment. X3 = CC(C)CCNCCC[C@H](N[*:1])C(=O)[*:2]; Ala(2-furyl) = N[C@@H](Cc1ccco1)C(=O)O; Orn(iPr) = CC(C)NCCC[C@H](N)C(=O)O; Dab(iPr) = CC(C)NCC[C@H](N)C(=O)O; 2Pal = N[C@@H](Cc1ccccn1)C(=O)O; 4Pal = N[C@@H](Cc1ccncc1)C(=O)O; 2Thi = N[C@@H](Cc1cccs1)C(=O)O; 3Thi = N[C@@H](Cc1ccsc1)C(=O)O; Aad = N[C@@H](CCCC(=O)O)C(=O)O; NHCH(CH2OH)2 = OCC(CO)N*; Orn = NCCC[C@H](N)C(=O)O; Dab = NCC[C@H](N)C(=O)O; NHOH = ON*

Key:
hV1a receptor = target: T1, hV1a receptor (Homo sapiens, UniProt P37288); assay: hV1a receptor transcriptional reporter (luciferase) agonist assay; type: cell-based
T1 construct: expressed in transfected cells; host or cells: HEK-293
T1 sequence (P37288 whole entry): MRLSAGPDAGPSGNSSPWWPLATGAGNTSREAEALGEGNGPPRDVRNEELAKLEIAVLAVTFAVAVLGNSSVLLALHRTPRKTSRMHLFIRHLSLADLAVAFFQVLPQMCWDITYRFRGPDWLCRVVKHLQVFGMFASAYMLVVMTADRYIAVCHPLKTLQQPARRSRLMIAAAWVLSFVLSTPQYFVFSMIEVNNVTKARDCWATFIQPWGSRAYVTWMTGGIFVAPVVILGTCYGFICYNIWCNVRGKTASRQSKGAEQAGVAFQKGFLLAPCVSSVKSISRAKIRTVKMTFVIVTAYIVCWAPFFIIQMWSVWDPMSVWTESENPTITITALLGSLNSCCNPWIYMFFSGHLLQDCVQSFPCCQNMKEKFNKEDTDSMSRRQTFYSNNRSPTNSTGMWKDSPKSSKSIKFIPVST
Protocol: (§1) Agonist activity of compounds on the hV1a receptor was determined in a transcriptional reporter assay by transiently transfecting a hV1a receptor expression DNA into HEK-293 cells in concert with a reporter DNA containing intracellular calcium responsive promoter elements regulating expression of firefly luciferase. See Boss, V., Talpade, D. J., Murphy, T. J. J. Biol. Chem. 1996, May 3; 271(18), 10429-10432 for further guidance on this assay. […] To determine selectivity, compounds were tested in luciferase-based transcriptional reporter assays expressing the human oxytocin (hOT) receptor. Assays for other receptors (hV2, hV1b, rat V1a and rat V2) were also conducted.
(§2) The EC50 value given is the geometric mean expressed in nanomol/L (nM). Selectivity values are given as EC50 ratios.

[1] = target: T2, human oxytocin (hOT) receptor (Homo sapiens, UniProt P30559); assay: luciferase-based transcriptional reporter assay, selectivity hOT versus hV1a; type: cell-based
T2 construct: expressed in transfected cells
T2 sequence (P30559 1-389): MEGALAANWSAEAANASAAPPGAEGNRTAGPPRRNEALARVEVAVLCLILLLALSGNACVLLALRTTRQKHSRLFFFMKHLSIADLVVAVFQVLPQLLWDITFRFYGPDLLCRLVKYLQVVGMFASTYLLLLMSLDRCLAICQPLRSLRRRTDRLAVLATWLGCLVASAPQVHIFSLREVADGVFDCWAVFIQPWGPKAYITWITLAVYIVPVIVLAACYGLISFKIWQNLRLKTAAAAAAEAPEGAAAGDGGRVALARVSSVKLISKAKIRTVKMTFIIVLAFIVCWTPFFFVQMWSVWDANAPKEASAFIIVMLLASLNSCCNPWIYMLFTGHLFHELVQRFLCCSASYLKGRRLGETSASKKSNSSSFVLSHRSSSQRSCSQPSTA
Protocol: as §1, §2

[2] = HEK-293 cells transiently transfected with hV1a receptor, 5 hours exposure, geometric mean, read-out: EC50 hV1a receptor
[3] = class symbol, agonist efficacy at hOT receptor compared to AVP

SMILES | EC50 (hV1a receptor) | selectivity hOT/hV1a [1] | selectivity hOT/hV1a ([1]; EC50 ratio) | EC50 (hV1a receptor; [2]) | selectivity hOT/hV1a [1, 3]
CC[C@H](C)[C@@H]1NC(=O)[C@H](Cc2ccccc2)NC(=O)[C@@H](N)CSSC[C@@H](C(=O)N2CCC[C@H]2C(=O)N[C@@H](CCCN)C(=O)NCC(N)=O)NC(=O)[C@H](CC(N)=O)NC(=O)[C@H](CC(=O)N(C)C)NC1=O [Compound 7] (H-CFID(NMe2)NCP[Orn]G-NH2; disulfide 1-6) | 2.84 nM | + (key: +: selective hV1a receptor agonist; EC50 hOT/hV1a ratio not determined due to very low agonist efficacy (<30% compared to AVP) at the hOT receptor) | – | – | –
CC[C@H](C)[C@@H]1NC(=O)[C@H](Cc2ccccn2)NC(=O)[C@@H](N)CSSC[C@@H](C(=O)N2CCC[C@H]2C(=O)N[C@@H](CCN)C(=O)NCC(N)=O)NC(=O)[C@H](CC(N)=O)NC(=O)[C@H](CCC(N)=O)NC1=O [Compound 17] (H-C[2Pal]IQNCP[Dab]G-NH2; disulfide 1-6) | 30.3 nM | + (key: +: selective hV1a receptor agonist; EC50 hOT/hV1a ratio not determined due to very low agonist efficacy (<30% compared to AVP) at the hOT receptor) | – | – | –
CC[C@H](C)[C@@H]1NC(=O)[C@H](Cc2ccccc2)NC(=O)[C@@H](N)CSSC[C@@H](C(=O)N2CCC[C@H]2C(=O)N[C@@H](CCCNCCC(C)C)C(=O)NCC(N)=O)NC(=O)[C@H](CC(N)=O)NC(=O)[C@H](CCC(N)=O)NC1=O [Compound 45] (H-CFIQNCP[X3]G-NH2; disulfide 1-6; N-terminus and C-terminus assumed) | 1.65 nM | – | 18 | – | –
CC[C@H](C)[C@@H]1NC(=O)[C@H](Cc2ccccc2)NC(=O)[C@@H](N)CSSC[C@@H](C(=O)N2CCC[C@H]2C(=O)N[C@@H](CCN)C(=O)NCC(N)=O)NC(=O)[C@H](CC(N)=O)NC(=O)[C@H](CCC(N)=O)NC1=O [Compound 8] (H-CFIQNCP[Dab]G-NH2; disulfide 1-6; N-terminus and C-terminus assumed) | – | – | 11 | 0.5 nM | –
CC[C@H](C)[C@@H]1NC(=O)[C@H](Cc2cccs2)NC(=O)[C@@H](N)CSSC[C@@H](C(=O)N2CCC[C@H]2C(=O)N[C@@H](CCN)C(=O)NCC(N)=O)NC(=O)[C@H](CC(N)=O)NC(=O)[C@H](CC(N)=O)NC1=O [Compound 36] (H-C[2Thi]INNCP[Dab]G-NH2; disulfide 1-6; N-terminus and C-terminus assumed) | – | – | – | 11.5 nM | + (selective hV1a receptor agonist; EC50 hOT/hV1a ratio not determined due to very low agonist efficacy (<30% compared to AVP) at the hOT receptor)
CC[C@H](C)[C@@H]1NC(=O)[C@H](Cc2cccs2)NC(=O)[C@@H](N)CSSC[C@@H](C(=O)N2CCC[C@H]2C(=O)N[C@@H](CCCNC(C)C)C(=O)NCC(N)=O)NC(=O)[C@H](CC(N)=O)NC(=O)[C@H](CC(N)=O)NC1=O [Compound 43] (H-C[2Thi]INNCP[Orn(iPr)]G-NH2; disulfide 1-6; N-terminus and C-terminus assumed) | – | – | – | 13.7 nM | + (selective hV1a receptor agonist; EC50 hOT/hV1a ratio not determined due to very low agonist efficacy (<30% compared to AVP) at the hOT receptor)
CC[C@H](C)[C@@H]1NC(=O)[C@H](Cc2ccccc2)NC(=O)[C@@H](N)CSSC[C@@H](C(=O)N2CCC[C@H]2C(=O)N[C@@H](CCCN)C(=O)NCC(N)=O)NC(=O)[C@H](CC(N)=O)NC(=O)[C@H](CCC(=O)NO)NC1=O [Compound 16] (H-CFIE(NHOH)NCP[Orn]G-NH2; disulfide 1-6; N-terminus and C-terminus assumed) | – | – | – | 11.9 nM | + (selective hV1a receptor agonist; EC50 hOT/hV1a ratio not determined due to very low agonist efficacy (<30% compared to AVP) at the hOT receptor)
CC[C@H](C)[C@@H]1NC(=O)[C@H](Cc2ccccc2)NC(=O)[C@@H](N)CSSC[C@@H](C(=O)N2CCC[C@H]2C(=O)N[C@@H](CCNC(C)C)C(=O)NCC(N)=O)NC(=O)[C@H](CC(N)=O)NC(=O)[C@H](CCCC(N)=O)NC1=O [Compound 22] (H-CFI[Aad](NH2)NCP[Dab(iPr)]G-NH2; disulfide 1-6; N-terminus and C-terminus assumed) | – | – | – | 18.1 nM | + (selective hV1a receptor agonist; EC50 hOT/hV1a ratio not determined due to very low agonist efficacy (<30% compared to AVP) at the hOT receptor)
CC[C@H](C)[C@@H]1NC(=O)[C@H](Cc2ccncc2)NC(=O)[C@@H](N)CSSC[C@@H](C(=O)N2CCC[C@H]2C(=O)N[C@@H](CCN)C(=O)NCC(N)=O)NC(=O)[C@H](CC(N)=O)NC(=O)[C@H](CCC(N)=O)NC1=O [Compound 12] (H-C[4Pal]IQNCP[Dab]G-NH2; disulfide 1-6) | 25 nM | + (key: +: selective hV1a receptor agonist; EC50 hOT/hV1a ratio not determined due to very low agonist efficacy (<30% compared to AVP) at the hOT receptor) | – | – | –
CCNC(=O)C[C@@H]1NC(=O)[C@H]([C@@H](C)CC)NC(=O)[C@H](Cc2ccccc2)NC(=O)[C@@H](N)CSSC[C@@H](C(=O)N2CCC[C@H]2C(=O)N[C@@H](CCCN)C(=O)NCC(N)=O)NC(=O)[C@H](CC(N)=O)NC1=O [Compound 48] (H-CFID(NHEt)NCP[Orn]G-NH2; disulfide 1-6; N-terminus and C-terminus assumed) | – | – | – | 5.7 nM | + (selective hV1a receptor agonist; EC50 hOT/hV1a ratio not determined due to very low agonist efficacy (<30% compared to AVP) at the hOT receptor)
CC[C@H](C)[C@@H]1NC(=O)[C@H](Cc2cccs2)NC(=O)[C@@H](N)CSSC[C@@H](C(=O)N2CCC[C@H]2C(=O)N[C@@H](CCCN)C(=O)NCC(N)=O)NC(=O)[C@H](CC(N)=O)NC(=O)[C@H](CC(N)=O)NC1=O [Compound 33] (H-C[2Thi]INNCP[Orn]G-NH2; disulfide 1-6; N-terminus and C-terminus assumed) | – | – | – | 14.6 nM | + (selective hV1a receptor agonist; EC50 hOT/hV1a ratio not determined due to very low agonist efficacy (<30% compared to AVP) at the hOT receptor)
CC[C@H](C)[C@@H]1NC(=O)[C@H](Cc2ccccc2)NC(=O)[C@@H](N)CSSC[C@@H](C(=O)N2CCC[C@H]2C(=O)N[C@@H](CCCN)C(=O)NCC(N)=O)NC(=O)[C@H](CC(N)=O)NC(=O)[C@H](CC(=O)NC(CO)CO)NC1=O [Compound 27] (H-CFID(NHCH(CH2OH)2)NCP[Orn]G-NH2; disulfide 1-6; N-terminus and C-terminus assumed) | – | – | – | 16.2 nM | + (selective hV1a receptor agonist; EC50 hOT/hV1a ratio not determined due to very low agonist efficacy (<30% compared to AVP) at the hOT receptor)
CC[C@H](C)[C@@H]1NC(=O)[C@H](Cc2ccccc2)NC(=O)[C@@H](N)CSSC[C@@H](C(=O)N2CCC[C@H]2C(=O)N[C@@H](CCN)C(=O)NCC(N)=O)NC(=O)[C@H](CC(N)=O)NC(=O)[C@H](CC(=O)NC)NC1=O [Compound 31] (H-CFID(NHMe)NCP[Dab]G-NH2; disulfide 1-6; N-terminus and C-terminus assumed) | – | – | – | 3.91 nM | + (selective hV1a receptor agonist; EC50 hOT/hV1a ratio not determined due to very low agonist efficacy (<30% compared to AVP) at the hOT receptor)
CC[C@H](C)[C@@H]1NC(=O)[C@H](Cc2ccco2)NC(=O)[C@@H](N)CSSC[C@@H](C(=O)N2CCC[C@H]2C(=O)N[C@@H](CCN)C(=O)NCC(N)=O)NC(=O)[C@H](CC(N)=O)NC(=O)[C@H](CC(N)=O)NC1=O [Compound 44] (H-C[Ala(2-furyl)]INNCP[Dab]G-NH2; disulfide 1-6; N-terminus and C-terminus assumed) | – | – | – | 14.5 nM | + (selective hV1a receptor agonist; EC50 hOT/hV1a ratio not determined due to very low agonist efficacy (<30% compared to AVP) at the hOT receptor)
CCNC(=O)CC[C@@H]1NC(=O)[C@H]([C@@H](C)CC)NC(=O)[C@H](Cc2ccccc2)NC(=O)[C@@H](N)CSSC[C@@H](C(=O)N2CCC[C@H]2C(=O)N[C@@H](CCCN)C(=O)NCC(N)=O)NC(=O)[C@H](CC(N)=O)NC1=O [Compound 20] (H-CFIE(NHEt)NCP[Orn]G-NH2; disulfide 1-6; N-terminus and C-terminus assumed) | – | – | – | 39.3 nM | + (selective hV1a receptor agonist; EC50 hOT/hV1a ratio not determined due to very low agonist efficacy (<30% compared to AVP) at the hOT receptor)
CC[C@H](C)[C@@H]1NC(=O)[C@H](Cc2ccsc2)NC(=O)[C@@H](N)CSSC[C@@H](C(=O)N2CCC[C@H]2C(=O)N[C@@H](CCN)C(=O)NCC(N)=O)NC(=O)[C@H](CC(N)=O)NC(=O)[C@H](CC(N)=O)NC1=O [Compound 37] (H-C[3Thi]INNCP[Dab]G-NH2; disulfide 1-6; N-terminus and C-terminus assumed) | – | – | – | 7.45 nM | + (selective hV1a receptor agonist; EC50 hOT/hV1a ratio not determined due to very low agonist efficacy (<30% compared to AVP) at the hOT receptor)
